Data reported in a melting point compilation (Tetko et al.).

SMILES | melting point [°C]
CC1(C)OCC2OC3(C(=O)O)OC(C)(C)OC3C2O1 (centres undefined) | 92
CC(C)OC(=O)C1(S(=O)(=O)c2ccc([N+](=O)[O-])cc2)CCC1 | 65.5
CCOC(=O)Nc1ccc2nn(C3CCCC3)nc2c1 | 122
Fc1ncccc1-c1ccc(Cl)cn1 | 100
Cc1cccc(N)c1N | 63.5
CC=Cc1ccc2c(c1)OCO2 | 8.2
CC1=CCC2C(C)(C)CCCC2(C)C12CCC(C)(CC(=O)O)O2 (centres undefined) | 100
O=C(O)/C(=C/c1cccc2ccccc12)c1ccccc1 | 160 to 161
N#Cc1ccc(Cl)c(C(F)(F)F)c1 | 66
CCC(O)C(CC(C)N(C)C)(c1ccccc1)c1ccccc1 (centres undefined) | 127
CC[C@H](CO)N1Cc2ccccc2C1 | 56 to 61
CCCCCCCCc1ccc(C(=O)CCC(=O)O)cc1 | 91 to 93
COc1cc(C)ccc1S(=O)(=O)Cl | 87
Cc1ccc(-n2nc(C)cc2O)cc1 | 132 to 133
Cc1c(S(=O)(=O)c2ccc(Cl)cc2)csc1C(=O)Cl | 131 to 132
CC1=C(C(=O)OCC(C)C)C(c2ccco2)NC(=O)N1 (centres undefined) | 170 to 171
O=C(O)C=CC(=O)Nc1ccc(I)cc1 | 194
O=Cc1ccc(Cl)c(F)c1 | 47
Nc1cc2ccccc2cn1 | 154 to 156
CC12CCCC1C1CCC3CC(=O)CCC3(C)C1CC2 (centres undefined) | 102
CC(=O)OCC12CC(OC(=O)CC(C)C)C(C)=CC1OC1C(O)C(OC(C)=O)C2(C)C12CO2 (centres undefined) | 152
C=CCCCCCCCCC(=O)OC | -27.5
CC(O)CN(CC(C)O)CC(C)O (centres undefined) | 48 to 52
O=COC1OC(=O)c2ccccc21 (centres undefined) | 82
C=CC(N)CCC(=O)O (centres undefined) | 209
N#Cc1ccc2occc2c1 | 84 to 86

SMILES | melting point [°C]
Cc1nc2ccccc2n1CCC(=O)NN1C(=O)CSC1c1ccccc1Cl (centres undefined) | 250
CC(C)=CCCC(C)=CC=CC(C)=CC=CC(C)=CC=CC=C(C)C=CC=C(C)C=CC1C(C)=CCCC1(C)C (centres undefined) | 140
Cc1ccc(S(=O)(=O)N(C)N=O)cc1 | 60
CCCCNC(=O)NNC(=O)OCC | 97
OCc1ccc(O)cc1 | 124
CC1(C)C(O)C(C)(C)C1O (centres undefined) | 126 to 134
O=C(O)C=Cc1ccccc1Cl | 209 to 212
CC1=C2C3OC(=O)C(C)C3C(O)CC2(C)C=CC1=O (centres undefined) | 203
N#Cc1c(C2CCCCC2)[nH]c(=S)[nH]c1=O | 300
CC1=NCCN1 | 107
CC(C)(C)N(NC(=O)c1ccccc1)C(=O)c1c(F)cccc1F | 194
CC1NC(C)SC(C)S1 (centres undefined) | 46
C(=Cc1ccccn1)c1ccccn1 | 118
CC1CC(C)(C)CC(OOC(C)(C)C)(OOC(C)(C)C)C1 (centres undefined) | -20
O=C(O)c1ccc(Sc2ccc(Cl)cc2)c([N+](=O)[O-])c1 | 217 to 220
O=C1SC(Cl)(Cl)c2nc3c(cc21)C(=O)SC3(Cl)Cl | 178 to 185
CC(=O)n1nc2oc3ccccc3cc-2c1=O | 170
Cc1ccc(C)n1-c1cc(Cl)c([N+](=O)[O-])cc1Cl | 82 to 84
CC1(C)SC2C(N)C(=O)N2C1C(=O)O (centres undefined) | 198 to 200
NC(=NO)c1ccc(Cl)cc1 | 131 to 134
OC1c2ccccc2CCc2ccccc21 | 92
ON=Cc1cccnc1 | 150
N#Cc1ccc(S(N)(=O)=O)cc1 | 170
Brc1cccc2c1Oc1ccccc1O2 | 104
OCc1ccc(N2CCOCC2)cc1 | 96 to 98
CC(C)=C/C=C/C=N/Nc1ccc([N+](=O)[O-])cc1[N+](=O)[O-] | 205 to 206

SMILES | melting point [°C]
C=C(C)C1Cc2c(cc(O)c3c2OC2COc4cc(OC)c(OC)cc4C2C3=O)O1 (centres undefined) | 195
COC(=O)c1sccc1Cl | 39 to 40
Cc1cc(C)cc(C=O)c1 | 8 to 10
NC(=S)c1cccc(-n2cccc2)c1 | 110 to 112
O=[N+]([O-])c1ccc2ncccc2c1 | 154
Fc1c(F)c(F)c(Br)c(F)c1F | -31
CC(C)(C)c1ccc(CSc2cnn(C(C)(C)C)c(=O)c2Cl)cc1 | 112
O=[N+]([O-])c1ccc(S(=O)(=O)O)c([N+](=O)[O-])c1 | 108
Cc1nn(C)c(Oc2ccccc2)c1C=NOCc1ccc(C(=O)OC(C)(C)C)cc1 | 102
CC(C)(C)CC(C)(C)c1ccc(OCCO)cc1 | -4
COc1cc(C(=O)NN)cc(OC)c1O | 156
C1CN2CCN3CCN1C23 | -14.7
Cc1cc(Br)ccc1N=C=O | 49
O=C(Cl)OCc1ccc([N+](=O)[O-])cc1 | 33
NCC1OC(OC2C(N)CC(N)C(O)C2OC2OC(CO)C(O)C2O)C(N)C(O)C1O (centres undefined) | 194
CCCOc1ccc(C#N)cc1 | 41
COC1CCC=CO1 (centres undefined) | 16
CCCCCCCC(=O)Cl | -63
Cc1ccccc1C(C)(C)C | -50
C1CCC2NCCCC2C1 (centres undefined) | 37.5 to 45
CC1=C(CC(=O)O)c2cc(F)ccc2C1=Cc1ccc(S(C)=O)cc1 (centres undefined) | 184
CC(=O)N1CCc2cccc(N)c21 | 157 to 160
Cc1onc(-c2ccccc2)c1C(=O)Cl | 24 to 25
CC(c1ccccc1)C(C(=O)O)c1ccccc1 (centres undefined) | 129
CCOCCCN | -70
Nc1ccc(-c2ccc(N)cc2Cl)c(Cl)c1 | 165

SMILES | melting point [°C]
CC(=NCc1ccccc1)c1c(O)c2ccccc2n(-c2ccccc2)c1=O | 164
CCOC(=O)c1ccc(NC(=O)C(C(F)(F)F)C(F)(F)F)cc1 | 166
COC(=O)c1c(-c2c(Cl)cccc2Cl)noc1C | 115
CSc1nc(N)nc(-c2cnccn2)n1 | 215
c1ccc(-c2nnc(NC3=NCCN3)s2)cc1 | 192 to 194
O=C=Nc1ccc(Br)cc1 | 41
CC12CCC(=O)CC1CCC1C2CCC2(C)C1CCC21OCCS1 (centres undefined) | 201
CC(=O)Nc1c(C)cc(Cl)cc1Cl | 174 to 176
CC(O)CNCCN (centres undefined) | -50
Oc1cc2c(cc1O)Cc1cc(O)c(O)cc1Cc1cc(O)c(O)cc1C2 | 287 to 289
CCC(C)CC(=O)O (racemic) | -41
ClC1=C(Cl)C(Cl)(Cl)C(Cl)(Cl)C1(Cl)Cl | 40
O=C(O)c1cc2ccccn2n1 | 189 to 192
Cc1ccc(N=c2sccn2C)c(C)c1 | 44
O=C1Cc2cc3c(cc21)OCO3 | 126
OC1CC(O)C(O)C(O)C1O (centres undefined) | 236
O=C(NC(Cc1ccccc1)C(=O)CCl)OCc1ccccc1 (centres undefined) | 107 to 108
Oc1c(I)cc(Cl)c2cccnc12 | 178
CCOC(=O)NC1C2CCC(C)(C1O)C2(C)C (centres undefined) | 76
Cc1nn(Cc2ccccc2)c(N)c1C#N | 78
c1ccc(Cc2nc3ccccc3[nH]2)cc1 | 187
O=c1c(C2CC(c3ccc(-c4ccccc4)cc3)Cc3ccccc32)c(O)oc2ccccc12 (centres undefined) | 213
CCCCCCCC(=O)CCC | 4.5
CC(/C=C(\C)c1ccc(C)cc1)=NNc1ccc([N+](=O)[O-])cc1[N+](=O)[O-] | 182 to 184
COC(C)(C)OC | -47
BrC(Br)C(Br)Br | 0

SMILES | melting point [°C]
O=C1CCCC2Cc3ccccc3C(=O)C12 (centres undefined) | 79
N#CC1C(=S)NC2(C(=O)Nc3ccccc32)C2=C1CCCC2 (centres undefined) | 222
O=Cc1ccc(-c2cccnc2)cc1 | 55
Cc1ccc(S(=O)(=O)NCCN(CCN(CCNS(=O)(=O)c2ccc(C)cc2)S(=O)(=O)c2ccc(C)cc2)S(=O)(=O)c2ccc(C)cc2)cc1 | 112
COC(=O)c1ccc(Oc2cc(Cl)cc(Cl)c2)o1 | 86 to 89
CC(CO)c1c(O)c(O)c2c(c1O)C(=O)C(=O)C1C(C)(C)CCCC21C (centres undefined) | 239
CC(CCC(=O)O)C1CCC2C3C(O)CC4CC(O)CCC4(C)C3CCC12C (centres undefined) | 203
CN1C2CCC1CC(OC(=O)C(O)c1ccccc1)C2 (centres undefined) | 99.5
Nc1ccc(C=Cc2ccccc2)c(N)c1 | 116
Cc1ccc2c(-c3ccccc3)nc(=O)n(C(C)C)c2c1 | 138
Cc1ccc(S(=O)(=O)OCCc2coc3ccccc23)cc1 | 61 to 62
CCCC(C(N)=O)n1nnc2ccccc21 (centres undefined) | 125
CCc1nc(CC)nc(NS(=O)(=O)c2ccc(N)cc2)n1 | 187
O=C(O)CCCCCO | 38 to 40
C1=CCCC=C1 | -89
CCOP(=S)(S)OCC | -10
CN(C)c1ccc(C=C(C#N)c2ccc(Cl)c(Cl)c2)cc1 | 213 to 214
Cc1cn(C2CC(F)C(CO)O2)c(=O)[nH]c1=O (centres undefined) | 177
O=[N+]([O-])c1ccc(NCc2ccccc2)c2nonc12 | 206 to 209
CN(C)C1C(=O)C(=C(N)O)C(=O)C2(O)C(=O)C3=C(O)c4c(O)ccc(Cl)c4C(O)C3CC12 (centres undefined) | 222
COc1c(Br)ccc2c1C(=NNc1ccc([N+](=O)[O-])cc1[N+](=O)[O-])C2 | 309 to 310
O=C(N[C@@H](Cc1ccccc1)C(=O)O)OCC1c2ccccc2-c2ccccc21 | 183 to 187
NC(=O)C(Cc1ccc([N+](=O)[O-])cc1)c1ccccc1 (centres undefined) | 176
COc1cc2c(c(OC)c1OC)C(=O)[C@]1(OC)C=C[C@H]2N(c2ccccc2)O1 | 114
NC(=O)c1cnccn1 | 189
